Reference: US7314937B2, “Non-imidazole aryl alkylamines compounds as histamine H3 receptor antagonists, preparation and therapeutic uses” (Eli Lilly and Company, priority 2002, dated 2008)
Where two headings read alike, the source gives them in different places.

Key:
[1] = target: T1, H3R membranes (H3R8-expressing HEK293 cell line) (Homo sapiens, UniProt Q9Y5N1); assay: [35S]GTPγS binding assay (antagonist inhibition of agonist-stimulated binding); format: biochemical; details: inhibition of [35S]GTPγS binding to H3R membranes in presence of agonist R(-) alpha methylhistamine
T1 construct: expressed in transfected cells; membranes
T1 sequence (Q9Y5N1 whole entry): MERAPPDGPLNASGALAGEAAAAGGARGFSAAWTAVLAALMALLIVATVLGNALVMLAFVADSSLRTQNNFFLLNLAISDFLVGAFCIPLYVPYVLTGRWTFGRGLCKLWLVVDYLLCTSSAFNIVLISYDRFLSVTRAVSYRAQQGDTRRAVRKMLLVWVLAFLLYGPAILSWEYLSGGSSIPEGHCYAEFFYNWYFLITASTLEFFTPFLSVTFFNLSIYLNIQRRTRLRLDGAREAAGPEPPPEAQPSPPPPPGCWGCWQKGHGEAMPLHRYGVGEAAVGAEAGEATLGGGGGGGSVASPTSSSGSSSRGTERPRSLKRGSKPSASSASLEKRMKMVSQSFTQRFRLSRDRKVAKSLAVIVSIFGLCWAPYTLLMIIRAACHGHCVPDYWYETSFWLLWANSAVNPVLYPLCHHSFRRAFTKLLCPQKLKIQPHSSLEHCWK
Description: Membranes isolated as described in Example 3 were used in a [^35S]GTPχS functional assay. Binding of [^35S]GTPχS to membranes indicates agonist activity. Compounds of the invention of Formula I were tested for their ability to inhibit binding in the presence of agonists. Alternately, the same transfected cell lines were used for a cAMP assay wherein H3R agonists inhibited forskolin-activated synthesis of cAMP. Compounds of Formula I were tested for their ability to permit forskolin-stimulated cAMP synthesis in the presence of agonist.
cDNA for the human histamine 3 receptor was cloned and expressed as described in Example 1, above. Transfected cells were selected using G418 (500 μ/ml), grown, and tested for histamine binding by the SPA described above. For total binding, cells were assayed in a SPA reaction described above containing 50 mM Tris-HCL (assay buffer), pH 7.6, 1 mg wheat germ agglutinin SPA beads (Amersham Pharmacia Biotech, #RPNQ0001), and 1 nM (^3H)-n-alpha-methylhistamine (NEN, NET1027) (total volume per well=200 μl). Thioperimide was added to determine non-specific binding. […]
Antagonist activity of selected compounds was tested for inhibition of [^35S] […] Plates were counted in Wallac Trilux 1450 Microbeta scintillation counter for 1 minute. […]

[2] = Rat pharmacokinetics, iv and po, LC/MS/MS; format: in vivo, Male Sprague Dawley Rats; details: 10 mg/kg po; for oral bioavailability (AUC 0-24 hr; po/iv ratio): 3 mg/kg iv; for half-life: male, Sprague Dawley, read-out: oral half-life (±SEM) (converted)
Description: Non-imidazole containing histamine H3 receptor antagonists disclosed in the literature generally have very poor pharmacokinetic properties (see J. Apelt, et al, J. Med. Chem. 2002,45,1128-1141). […] Male Sprague Dawley Rats (n=3 per dose arm) were separately dosed with 3 mg/kg iv or 10 mg/kg po of compound examples 131 and 271 (vehicle: 5% ethanol/water or water respectively; dose volume: 1 mL/kg iv, 10 mL/kg po). Approximately 0.5 mL of blood was collected in heparin collection tubes at multiple time points over an 8 or 24-hour period for examples 131 and 271 respectively, and the samples were analyzed using LC/MS/MS.

[3] = target: T2, human histamine 1 receptor (H1R) (Homo sapiens, UniProt P35367); assay: Competitive SPA binding assay, H1R, 3H-pyrilamine; details: selectivity study Table 2
T2 construct: expressed in transfected cells; membranes
T2 sequence (P35367 whole entry): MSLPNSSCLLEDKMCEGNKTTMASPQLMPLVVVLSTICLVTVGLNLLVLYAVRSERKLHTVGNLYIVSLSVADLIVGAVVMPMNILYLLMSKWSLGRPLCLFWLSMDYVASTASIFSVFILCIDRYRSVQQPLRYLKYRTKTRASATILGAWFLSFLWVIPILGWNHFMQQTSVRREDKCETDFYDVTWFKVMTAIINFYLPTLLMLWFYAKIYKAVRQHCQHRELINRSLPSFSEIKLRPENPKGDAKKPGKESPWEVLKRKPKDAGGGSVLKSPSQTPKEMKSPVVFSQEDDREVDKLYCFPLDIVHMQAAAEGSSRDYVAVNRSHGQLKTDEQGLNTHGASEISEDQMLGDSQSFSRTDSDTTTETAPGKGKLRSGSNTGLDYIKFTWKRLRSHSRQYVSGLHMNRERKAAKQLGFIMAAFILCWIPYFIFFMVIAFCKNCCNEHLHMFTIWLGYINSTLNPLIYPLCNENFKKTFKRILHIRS
Description: A. Preparation H1R Membranes
cDNA for the human histamine 1 receptor (H1R) was cloned into a mammalian expression vector containing the CMV promoter (pcDNA3.1 (+), Invitogen) and transfected into HEK293 cells using the FuGENE Tranfection Reagent (Roche Diagnostics Corporation). Transfected cells were selected using G418 (500 μ/ml). Colonies that survived selection were grown and tested for histamine binding to cells grown in 96-well dishes using a scintillation proximity assay (SPA) based radioligand binding assay. Briefly, cells, representing individual selected clones, were grown as confluent monolayers in 96-well dishes (Costar Clear Bottom Plates, #3632) by seeding wells with 25,000 cells and growing for 48 hours (37° C., 5% CO2). Growth media was removed and wells were rinsed two times with PBS (minus Ca^2+ or Mg^2+). For total binding, cells were assayed in a SPA reaction containing 50 mM Tris-HCL (assay buffer), pH 7.6, 1 mg wheat germ agglutinin SPA beads (Amersham Pharmacia Biotech, #RPNQ0001), and 0.8 nM ^3H-pyrilamine (Net-594, NEN) (total volume per well=200 μl). Astemizole (10 μM, Sigma #A6424) was added to appropriate wells to determine non-specific binding. Plates were covered with FasCal and incubated at room temperature for 120 minutes. […] Plates were counted in a Wallac Trilux 1450 Microbeta scintillation counter. […]

[4] = target: T3, human histamine 2 receptor (Homo sapiens, UniProt P25021); assay: Competitive SPA binding assay, H2R, 3H-tiotidine; details: selectivity study Table 2, read-out: Ki (nM) H2
T3 construct: expressed in transfected cells; membranes
T3 sequence (P25021 whole entry): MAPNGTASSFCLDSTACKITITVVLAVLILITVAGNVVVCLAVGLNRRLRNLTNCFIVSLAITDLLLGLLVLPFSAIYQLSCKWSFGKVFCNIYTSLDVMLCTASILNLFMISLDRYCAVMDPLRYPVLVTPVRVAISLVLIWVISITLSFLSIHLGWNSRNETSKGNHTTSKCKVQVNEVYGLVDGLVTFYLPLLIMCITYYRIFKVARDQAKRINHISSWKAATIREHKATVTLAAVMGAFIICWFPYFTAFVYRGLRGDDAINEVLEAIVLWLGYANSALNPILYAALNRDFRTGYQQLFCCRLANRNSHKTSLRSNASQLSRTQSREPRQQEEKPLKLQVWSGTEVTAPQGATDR
Description: B. Preparation H2R Membranes
cDNA for the human histamine 2 receptor was cloned, expressed and transfected into HEK 293 cells as described above. Histamine binding to cells was assayed by SPA described above. For total binding, cells were assayed in a SPA reaction containing 50 mM Tris-HCl (assay buffer), pH 7.6, 1 mg wheat germ agglutinin SPA beads (Amersham Pharmacia Biotech, #RPNQ0001), and 6.2 nM ^3H-tiotidine (Net-688, NEN) (total volume per well=200 μl). Cimetidine (10 μM, Sigma #C4522) was added to appropriate wells to determine non-specific binding.
Several clones were selected as positive for binding, and a single clone (H2R10) was used to prepare membranes for binding studies. Five micrograms of protein was used per well in the SPA receptor-binding assay.
(§1) To investigate the selectivity of the antagonists for the histamine receptors, a competitive binding assay described above was performed. […] Until the present invention, most known H3R antagonists also bound H4R.

[5] = target: T4, human histamine 3 receptor (H3R) (Homo sapiens, UniProt Q9Y5N1); assay: Competitive inhibition SPA radioligand binding assay, H3R
T4 construct: expressed in transfected cells; membranes
T4 sequence (Q9Y5N1 whole entry): as the sequence (Q9Y5N1 whole entry) above
Description: The inventive compounds can readily be evaluated by using a competitive inhibition Scintillation Proximity Assay (SPA) based on a H3R binding assay using [3H] a methylhistamine as ligand. Stable cell lines, including but not limited to HEK can be transfected with cDNA coding for H3R to prepare membranes used for the binding assay. The technique is illustrated below (Example 3) for the histamine receptor subtypes.
C. Preparation of H3R Membranes
cDNA for the human histamine 3 receptor was cloned and expressed as described in Example 1, above. Transfected cells were selected using G418 ([…]), grown, and tested for histamine binding by the SPA described above. For total binding, cells were assayed in a SPA reaction described above containing 50 mM Tris-HCL (assay buffer), pH 7.6, 1 mg wheat germ agglutinin SPA beads (Amersham Pharmacia Biotech, #RPNQ0001), and 1 nM (^3H)-n-alpha-methylhistamine (NEN, NET1027) (total volume per well=200 μl). Thioperimide was added to determine non-specific binding. Several clones were selected as positive for binding, and a single clone (H3R8) was used to prepare membranes for binding studies described above. Five micrograms of protein was used per well in the SPA receptor-binding assay.
To investigate the selectivity of the antagonists for the histamine receptors, a competitive binding assay described above was performed. […]

[6] = target: T5, human GPRv53 receptor (H4R) (Homo sapiens, UniProt Q9H3N8); assay: Competitive binding assay, GPRv53 (H4R), [3H]histamine; details: for inhibition of binding to H4R compared to H3R: in words; for Ki: selectivity study Table 2
T5 construct: expressed in transfected cells; host or cells: HEK293 GPRv53 50 cells; homogenised whole-cell lysates
Description: D. Preparation of GPRv53 Membranes
cDNA for the human GPRv53 receptor was cloned and expressed as described in Example 1, above. Transfected cells were selected, tested for histamine binding, and selected. HEK293 GPRv53 50 cells were grown to confluency in DMEM/F12 (Gibco) supplemented with 5% FBS and 500 ug/ml G418 and washed with Delbecco's PBS (Gibco) and harvested by scraping. Whole cells were homogenized with a Polytron tissuemizer in binding buffer, 50 mM Tris pH 7.5. Cell lysates, 50 ug, were incubated in 96 well dishes with 3 nM (3H) Histamine and compounds in binding buffer for 2 hours at room temperature. Lysates were filtered through glass fiber filters (Perkin Elmer) with a Tomtec cell harverster. Filters were counted with melt-on scintillator sheets (Perkin Elmer) in a Wallac Trilux 1450 Microbeta Scintillation counter for 5 minutes.
as §1

Row | Ki [1] | Ki ([5]; competitive binding, selectivity study Table 2, read-out: Ki (nM) H3R) | half-life ([2]; blood) | SMILES | oral bioavailability (AUC 0-24 hr; po/iv ratio) [2] | half-life ([2]; in vivo) | Ki [3] | Ki [4] | inhibition of binding to H4R compared to H3R [6] | Ki [6] | Ki [5]
1 | 1.4 nM |  |  | CCN(CC)CCCOc1ccc(C(C)N(C)CCN(C)C)cc1 (stereo not drawn) [Example 1] |  |  |  |  |  |  | 
2 |  |  |  | CCN1CCc2ccc(OCCCN3CCCCC3)cc2C1.Cl.Cl [Example 271, 2-Ethyl-7-(3-Piperidin-1-yl-propoxy)-1,2,3,4-tetrahydro-isoquinoline dihydrochloride] | 69% | 71.9 ± 3.3 h |  |  |  |  | 
3 |  | 1.05 nM | 10.4 ± 4.2 h | O=C(c1ccc(OCCN2CCCCC2)cc1)N1CCC[C@H]1CN1CCCC1 [Example 131] | 58% |  | ≥ 20000 nM | ≥ 20000 nM | did not inhibit binding H4R | ≥ 20000 nM | 
4 |  |  |  | CCN1CCc2cc(OCCCN3CCCCC3)ccc2C1.Cl.Cl [Example 250, 2-Ethyl-6-(3-piperidin-1-yl-propoxy)-1,2,3,4-tetrahydro-isoquinoline dihydrochloride] |  |  | 1020 nM | 1110 nM | did not inhibit binding H4R | ≥ 20000 nM | 0.37 nM
